According to EP1433789A1, “Pyrrolopyrazines and their use as selective apoptosis inducers” (Aponetics AG, priority 2002, dated 2004):

Tests used:
HeLa = assay: Hoechst 33342 nuclear staining (Table 3); type: cell-based, human; design: key: 0 relating to no activity; 1 relating to weak activity comprising less than 50% of the cells; score 2 relating to strong activity comprising more than 50% of the cells
Method in brief: (§1)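 Adherent cells (3-5×10^3, pre-spread 24 h) or suspension cells (8-10×10^3) treated with compounds at 10, 3, 1 and 0.3 µM for 24 or 48 h, then Hoechst 33342 stained for 30 min. Apoptotic nuclear morphology scored by fluorescence microscopy: 0 none, 1 weak (<50% cells), 2 strong (>50% cells).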

Jurkat = assay: Hoechst 33342 nuclear staining (Table 3); type: cell-based, human; design: key: 0 relating to no activity; 1 relating to weak activity comprising less than 50% of the cells; score 2 relating to strong activity comprising more than 50% of the cells
Method in brief: as §1

K562 = assay: Hoechst 33342 nuclear staining (Table 3); type: cell-based, human; design: key: 0 relating to no activity; 1 relating to weak activity comprising less than 50% of the cells; score 2 relating to strong activity comprising more than 50% of the cells
Method in brief: as §1

KB = assay: Hoechst 33342 nuclear staining (Table 3); type: cell-based, human; design: key: 0 relating to no activity; 1 relating to weak activity comprising less than 50% of the cells; score 2 relating to strong activity comprising more than 50% of the cells
Method in brief: as §1

A20 = assay: AnnexinV/7-AAD staining; type: cell-based, mouse; details: A20, 10 µM, 24 h treatment
Method in brief: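 Cells treated with compound at 10 µM final for 24 h, then stained with AnnexinV-GST/anti-GST Alexa 488 and 7-AAD and analysed by flow cytometry. Percent positive cells scored as 0 (<10%), 1 (10–50%) or 2 (>50%).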

## CC1(C)Cc2ccccc2-c2c(Br)c3nc4ccccc4nc3n21 [No. 2, 13-Bromo-6,6-dimethyl-5,6-dihydro-6a,7,12-triaza-dibenzo[a,h]fluorene]
HeLa; 24h, conc 0.3 (µM)
  Hoechst 33342 nuclear staining: 0
HeLa; 24h, conc 1 (µM)
  Hoechst 33342 nuclear staining: 0
HeLa; 24h, conc 3 (µM)
  Hoechst 33342 nuclear staining: 0
HeLa; 24h, conc 10 (µM)
  Hoechst 33342 nuclear staining: 0
HeLa; 48h, conc 0.3 (µM)
  Hoechst 33342 nuclear staining: 0
HeLa; 48h, conc 1 (µM)
  Hoechst 33342 nuclear staining: 1 (1 relating to weak activity comprising less than 50% of the cells)
HeLa; 48h, conc 3 (µM)
  Hoechst 33342 nuclear staining: 2 (score 2 relating to strong activity comprising more than 50% of the cells)
HeLa; 48h, conc 10 (µM)
  Hoechst 33342 nuclear staining: 2 (score 2 relating to strong activity comprising more than 50% of the cells)
Jurkat; 24h, conc 0.3 (µM)
  Hoechst 33342 nuclear staining: 1 (1 relating to weak activity comprising less than 50% of the cells)
Jurkat; 24h, conc 1 (µM)
  Hoechst 33342 nuclear staining: 1 (1 relating to weak activity comprising less than 50% of the cells)
Jurkat; 24h, conc 3 (µM)
  Hoechst 33342 nuclear staining: 2 (score 2 relating to strong activity comprising more than 50% of the cells)
Jurkat; 24h, conc 10 (µM)
  Hoechst 33342 nuclear staining: 2 (score 2 relating to strong activity comprising more than 50% of the cells)
Jurkat; 48h, conc 0.3 (µM)
  Hoechst 33342 nuclear staining: 2 (score 2 relating to strong activity comprising more than 50% of the cells)
Jurkat; 48h, conc 1 (µM)
  Hoechst 33342 nuclear staining: 2 (score 2 relating to strong activity comprising more than 50% of the cells)
Jurkat; 48h, conc 3 (µM)
  Hoechst 33342 nuclear staining: 2 (score 2 relating to strong activity comprising more than 50% of the cells)
Jurkat; 48h, conc 10 (µM)
  Hoechst 33342 nuclear staining: 2 (score 2 relating to strong activity comprising more than 50% of the cells)
K562; K562, 24h, conc 0.3 (µM)
  Hoechst 33342 nuclear staining: 0
K562; K562, 24h, conc 1 (µM)
  Hoechst 33342 nuclear staining: 0
K562; K562, 24h, conc 3 (µM)
  Hoechst 33342 nuclear staining: 1 (1 relating to weak activity comprising less than 50% of the cells)
K562; K562, 48h, conc 0.3 (µM)
  Hoechst 33342 nuclear staining: 0
K562; K562, 48h, conc 1 (µM)
  Hoechst 33342 nuclear staining: 0
K562; K562, 48h, conc 3 (µM)
  Hoechst 33342 nuclear staining: 2 (score 2 relating to strong activity comprising more than 50% of the cells)
K562; K562, 48h, conc 10 (µM)
  Hoechst 33342 nuclear staining: 2 (score 2 relating to strong activity comprising more than 50% of the cells)
KB; 24h, conc 0.3 (µM)
  Hoechst 33342 nuclear staining: 0
KB; 24h, conc 1 (µM)
  Hoechst 33342 nuclear staining: 0
KB; 24h, conc 3 (µM)
  Hoechst 33342 nuclear staining: 0
KB; 24h, conc 10 (µM)
  Hoechst 33342 nuclear staining: 0
KB; 48h, conc 0.3 (µM)
  Hoechst 33342 nuclear staining: 0
KB; 48h, conc 1 (µM)
  Hoechst 33342 nuclear staining: 0
KB; 48h, conc 3 (µM)
  Hoechst 33342 nuclear staining: 0
KB; 48h, conc 10 (µM)
  Hoechst 33342 nuclear staining: 0
A20
  percentage of positively stained cells (AnnexinV/7-AAD staining): 2 (score 2 relates to more than 50% positivity)
